{
  "source": "patent US20210128566A1",
  "about": "“NOVEL FUNCTIONALIZED PURINE-2,6-DIONES AND THEIR USE IN MEDICINE” (THOMAS HELLEDAYS STIFTELSE FÖR MEDICINSK FORSKNING, priority 2017, published 2021)",
  "data": [
    {"system": "T47D^WT cells", "assay": "Nuclear-targeted luciferase reporter of nuclear ATP production after R5020 stimulation", "type": "cell-based", "conditions": "hormone-starved T47D^WT cells, compound for two hours, then R5020; Compound 19 at 1.5 μM, Compounds 16/17 at 15 μM", "description": "Top, a representative measurement of bioluminescence intensity over 60 minutes of R5020 treatment; bottom, box-and-whisker plots of bioluminescence quantitations from six independent experiments (center line, median; box limits, upper and lower quartiles; whiskers, minima and maxima; individual data points also shown). ns—not significant, *—p<0.05, **—p<0.01, ***—p<0.001; repeated measures two-way ANOVA analysis.\nIn HR+ breast cancer cells, NUDT5 activity is required to produce ATP in the nucleus following hormone stimulation (Wright, R. H. G. et al., Science, 352, 1221-1225 (2016)). A nuclear-targeted luciferase reporter system was employed to monitor ATP production after hormone stimulation.\nHormone-starved T47D^WT cells were treated with example compounds as described herein for two hours and then stimulated with the progesterone receptor agonist, R5020, for the time points indicated.", "values": [
      {"smiles": "CCCCN1CCN(c2nc3c(c(=O)n(C)c(=O)n3C)n2Cc2nnc(-c3ccc(Cl)c(Cl)c3)o2)CC1", "note": "[Example 16, 8-(4-butylpiperazin-1-yl)-7-{[5-(3,4-dichlorophenyl)-1,3,4-oxadiazol-2-yl]methyl}-1,3-dimethyl-2,3,6,7-tetrahydro-1H-purine-2,6-dione]", "nuclear luminescence (nuclear ATP production)": "Strong luminescence"},
      {"smiles": "CCN1CCN(c2nc3c(c(=O)n(C)c(=O)n3C)n2Cc2nnc(-c3ccc(Cl)c(Cl)c3)o2)CC1", "note": "[Example 17, 7-{[5-(3,4-dichlorophenyl)-1,3,4-oxadiazol-2-yl]methyl}-8-(4-ethylpiperazin-1-yl)-1,3-dimethyl-2,3,6,7-tetrahydro-1H-purine-2,6-dione]", "nuclear luminescence (nuclear ATP production)": "Strong luminescence"},
      {"smiles": "Cn1c(=O)c2c(nc(N3CCNCC3)n2Cc2nnc(-c3ccc(Cl)c(Cl)c3)o2)n(C)c1=O", "note": "[Example 19, 7-{[5-(3,4-dichlorophenyl)-1,3,4-oxadiazol-2-yl]methyl}-1,3-dimethyl-8-(piperazin-1-yl)-2,3,6,7-tetrahydro-1H-purine-2,6-dione]", "nuclear luminescence (nuclear ATP production)": "reduced nuclear luminescence"}
    ]},
    {"biological_target": "recombinant human NUDT5 (Homo sapiens, UniProt Q9UKK9)", "assay": "NUDT5 inhibitor activity by malachite green reporter assay", "type": "biochemical", "conditions": "Table 3; 6 nM NUDT5, 50 μM ADP-Ribose, 15 minutes at room temperature", "how_it_was_run": "(§1)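 Coupled ADP-ribose hydrolysis in 10 mM Tris-acetate pH 8.0, 40 mM NaCl, 10 mM Mg acetate, 0.005% Tween-20, 1 mM DTT: 6 nM NUDT5, 50 μM ADP-Ribose, 10 U/ml alkaline phosphatase, 15 min at room temperature. Pi read by malachite green at 630 nm; compounds 100 μM–1.7 nM, 3-fold; IC50 by curve fit.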", "units": {"IC50": "nM"}, "values": [
      {"smiles": "CCCCN1CCN(c2nc3c(c(=O)n(C)c(=O)n3C)n2Cc2nnc(-c3ccc(Cl)c(Cl)c3)o2)CC1", "note": "[Example 16, 8-(4-butylpiperazin-1-yl)-7-{[5-(3,4-dichlorophenyl)-1,3,4-oxadiazol-2-yl]methyl}-1,3-dimethyl-2,3,6,7-tetrahydro-1H-purine-2,6-dione]", "IC50": 53.8},
      {"smiles": "CCN1CCN(c2nc3c(c(=O)n(C)c(=O)n3C)n2Cc2nnc(-c3ccc(Cl)c(Cl)c3)o2)CC1", "note": "[Example 17, 7-{[5-(3,4-dichlorophenyl)-1,3,4-oxadiazol-2-yl]methyl}-8-(4-ethylpiperazin-1-yl)-1,3-dimethyl-2,3,6,7-tetrahydro-1H-purine-2,6-dione]", "IC50": 39},
      {"smiles": "Cn1c(=O)c2c(nc(N3CCCCCC3)n2Cc2nnc(-c3ccc(Cl)c(Cl)c3)o2)n(C)c1=O", "note": "[Example 21, 8-(azepan-1-yl)-7-{[5-(3,4-dichlorophenyl)-1,3,4-oxadiazol-2-yl]methyl}-1,3-dimethyl-2,3,6,7-tetrahydro-1H-purine-2,6-dione]", "IC50": 50.3},
      {"smiles": "CN(C)C1CCN(c2nc3c(c(=O)n(C)c(=O)n3C)n2Cc2nnc(-c3ccc(Cl)c(Cl)c3)o2)CC1", "note": "[Example 45, 7-{[5-(3,4-dichlorophenyl)-1,3,4-oxadiazol-2-yl]methyl}-8-[4-(dimethylamino)piperidin-1-yl]-1,3-dimethyl-2,3,6,7-tetrahydro-1H-purine-2,6-dione]", "IC50": 14.9},
      {"smiles": "CC1CN(c2nc3c(c(=O)n(C)c(=O)n3C)n2Cc2nnc(-c3ccc(Cl)c(Cl)c3)o2)CCN1", "note": "(stereo not shown) [Example 33, 7-{[5-(3,4-dichlorophenyl)-1,3,4-oxadiazol-2-yl]methyl}-1,3-dimethyl-8-(3-methylpiperazin-1-yl)-2,3,6,7-tetrahydro-1H-purine-2,6-dione]", "IC50": 17.8},
      {"smiles": "Cn1c(=O)c2c(nc(N3CCC(CO)CC3)n2Cc2nnc(-c3ccc(Cl)c(Cl)c3)o2)n(C)c1=O", "note": "[Example 40, 7-{[5-(3,4-dichlorophenyl)-1,3,4-oxadiazol-2-yl]methyl}-8-[4-(hydroxymethyl)piperidin-1-yl]-1,3-dimethyl-2,3,6,7-tetrahydro-1H-purine-2,6-dione]", "IC50": 20.3},
      {"smiles": "Cn1c(=O)c2c(nc(N3CCN(C(=O)OC(C)(C)C)CC3)n2Cc2nnc(-c3ccc(Cl)c(Cl)c3)o2)n(C)c1=O", "note": "[Example 14, tert-butyl 4-(7-{[5-(3,4-dichlorophenyl)-1,3,4-oxadiazol-2-yl]methyl}-1,3-dimethyl-2,6-dioxo-2,3,6,7-tetrahydro-1H-purin-8-yl)piperazine-1-carboxylate]", "IC50": 164},
      {"smiles": "Cn1c(=O)c2c(nc(Cc3ccccc3)n2Cc2nnc(-c3ccc(Cl)c(Cl)c3)o2)n(C)c1=O", "note": "[Example 63, 8-benzyl-7-{[5-(3,4-dichlorophenyl)-1,3,4-oxadiazol-2-yl]methyl}-1,3-dimethyl-2,3,6,7-tetrahydro-1H-purine-2,6-dione]", "IC50": "> 1000"},
      {"smiles": "Cn1c(=O)c2c(nc(N3CCC3)n2Cc2nnc(-c3ccc(Cl)c(Cl)c3)o2)n(C)c1=O", "note": "[Example 36, 8-(azetidin-1-yl)-7-{[5-(3,4-dichlorophenyl)-1,3,4-oxadiazol-2-yl]methyl}-1,3-dimethyl-2,3,6,7-tetrahydro-1H-purine-2,6-dione]", "IC50": 34},
      {"smiles": "Cn1c(=O)c2c(nc(N3CCNCC3)n2Cc2nnc(-c3ccc(Cl)c(Cl)c3)o2)n(C)c1=O", "note": "[Example 19, 7-{[5-(3,4-dichlorophenyl)-1,3,4-oxadiazol-2-yl]methyl}-1,3-dimethyl-8-(piperazin-1-yl)-2,3,6,7-tetrahydro-1H-purine-2,6-dione]", "IC50": 29.1},
      {"smiles": "CCCCN1CCN(c2nc3c(c(=O)n(C)c(=O)n3C)n2Cc2nnc(-c3cccc(C)c3)o2)CC1", "note": "[Example 54, 8-(4-butylpiperazin-1-yl)-1,3-dimethyl-7-{[5-(3-methylphenyl)-1,3,4-oxadiazol-2-yl]methyl}-2,3,6,7-tetrahydro-1H-purine-2,6-dione]", "IC50": "> 1000"}
    ]},
    {"biological_target": "recombinant human NUDT5 (Homo sapiens, UniProt Q9UKK9)", "assay": "NUDT5 inhibitor activity by malachite green reporter assay", "type": "biochemical", "conditions": "Table 4; 6 nM NUDT5, 50 μM ADP-Ribose, 15 minutes at room temperature", "how_it_was_run": "as §1", "units": {"IC50": "nM"}, "values": [
      {"smiles": "Cn1c(=O)c2c(nc(N3CCNCC3)n2Cc2nnc(-c3ccc(CS(C)(=O)=O)cc3)o2)n(C)c1=O", "note": "[Example 122, 7-({5-[4-(methanesulfonylmethyl)phenyl]-1,3,4-oxadiazol-2-yl}methyl)-1,3-dimethyl-8-(piperazin-1-yl)-2,3,6,7-tetrahydro-1H-purine-2,6-dione]", "IC50": 24400},
      {"smiles": "Cn1c(=O)c2c(nc(-n3cccn3)n2Cc2nnc(-c3ccc(Cl)c(Cl)c3)o2)n(C)c1=O", "note": "[Example 67, 7-{[5-(3,4-dichlorophenyl)-1,3,4-oxadiazol-2-yl]methyl}-1,3-dimethyl-8-(1H-pyrazol-1-yl)-2,3,6,7-tetrahydro-1H-purine-2,6-dione]", "IC50": 200},
      {"smiles": "Cn1c(=O)c2c(nc(Cl)n2Cc2nnc(-c3ccc(C(F)(F)F)cc3)o2)n(C)c1=O", "note": "[Example 102, 8-chloro-1,3-dimethyl-7-({5-[4-(trifluoromethyl)phenyl]-1,3,4-oxadiazol-2-yl}methyl)-2,3,6,7-tetrahydro-1H-purine-2,6-dione]", "IC50": 484},
      {"smiles": "COc1ccc(-c2nnc(Cn3c(Cl)nc4c3c(=O)n(C)c(=O)n4C)o2)cc1Cl", "note": "[Example 99, 8-chloro-7-{[5-(3-chloro-4-methoxyphenyl)-1,3,4-oxadiazol-2-yl]methyl}-1,3-dimethyl-2,3,6,7-tetrahydro-1H-purine-2,6-dione]", "IC50": 73},
      {"smiles": "COc1cc(-c2nnc(Cn3c(N4CCC(CO)CC4)nc4c3c(=O)n(C)c(=O)n4C)o2)ccc1C", "note": "[Example 130, 8-[4-(hydroxymethyl)piperidin-1-yl]-7-{[5-(3-methoxy-4-methylphenyl)-1,3,4-oxadiazol-2-yl]methyl}-1,3-dimethyl-2,3,6,7-tetrahydro-1H-purine-2,6-dione]", "IC50": 205}
    ]}
  ]
}
